# Laboratory results as given in patent US20150110853A1, “TREATMENT OF RADICAL PROSTATECTOMY-INDUCED ERECTILE DYSFUNCTION” (PANACEA PHARMACEUTICALS, priority 2013, published 2015).
# Legend:
# [1] = molecular target: T1, ribonucleotide reductase (Homo sapiens, UniProt P31350); conditions: cited from earlier work
# T1 sequence (P31350 1-389): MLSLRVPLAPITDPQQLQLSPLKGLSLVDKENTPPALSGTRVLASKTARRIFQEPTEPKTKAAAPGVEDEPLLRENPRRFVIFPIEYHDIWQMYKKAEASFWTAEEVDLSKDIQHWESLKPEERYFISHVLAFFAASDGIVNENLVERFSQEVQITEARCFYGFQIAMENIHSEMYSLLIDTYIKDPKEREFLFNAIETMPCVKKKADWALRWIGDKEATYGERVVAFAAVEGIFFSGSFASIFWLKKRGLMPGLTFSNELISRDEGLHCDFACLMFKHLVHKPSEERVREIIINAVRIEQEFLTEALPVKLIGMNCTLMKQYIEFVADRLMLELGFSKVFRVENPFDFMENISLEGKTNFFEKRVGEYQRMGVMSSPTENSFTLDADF
# T1 sequence (P23921 1-792 partner): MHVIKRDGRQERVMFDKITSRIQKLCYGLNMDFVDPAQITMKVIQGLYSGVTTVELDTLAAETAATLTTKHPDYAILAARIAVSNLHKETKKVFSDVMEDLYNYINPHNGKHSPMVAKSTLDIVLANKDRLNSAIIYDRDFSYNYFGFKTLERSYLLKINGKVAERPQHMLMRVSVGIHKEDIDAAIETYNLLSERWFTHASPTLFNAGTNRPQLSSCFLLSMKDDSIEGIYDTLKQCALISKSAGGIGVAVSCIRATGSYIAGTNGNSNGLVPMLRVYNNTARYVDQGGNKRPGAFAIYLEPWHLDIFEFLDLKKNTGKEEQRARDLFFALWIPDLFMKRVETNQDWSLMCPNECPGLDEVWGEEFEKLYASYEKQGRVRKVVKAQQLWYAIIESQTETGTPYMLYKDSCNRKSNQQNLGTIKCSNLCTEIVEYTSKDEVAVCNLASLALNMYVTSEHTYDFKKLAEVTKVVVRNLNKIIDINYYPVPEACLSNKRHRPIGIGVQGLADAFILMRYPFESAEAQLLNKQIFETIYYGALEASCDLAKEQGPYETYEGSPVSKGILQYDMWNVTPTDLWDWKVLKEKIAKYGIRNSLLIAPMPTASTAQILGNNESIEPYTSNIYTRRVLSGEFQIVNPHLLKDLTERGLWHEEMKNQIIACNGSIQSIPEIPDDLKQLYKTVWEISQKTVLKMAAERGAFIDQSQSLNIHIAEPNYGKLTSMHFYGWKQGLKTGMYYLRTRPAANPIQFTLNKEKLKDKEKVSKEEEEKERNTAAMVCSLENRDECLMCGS
# [2] = tested on: cultured neuronal cells; assay type: cell-based
# Procedure: (§1) PAN-811 was originally developed for cancer therapy due to its ability to inhibit ribonucleotide reductase, a key enzyme required for DNA synthesis. […] PAN-811 was administered intracerebroventricularly (i.c.v.) at a dose of 50 μg per rat at 1 h after arterial occlusion. […] The effect of a single intravenous (i. v.) bolus injection of PAN-811 was also investigated. […] Mechanistically PAN-811 prevents glutamate-induced excitatory cytotoxicity, veratridine-induced sodium channel opening and related cell death, and staurosporine-induced apoptosis. […] In culture, ischemic condition results in a 19-fold increase in intracellular free calcium. PAN-811 at a dose of 5 μM reduced this elevated level by 72%. […] In addition, PAN-811 effectively suppresses oxidative stress in many ways. […] Importantly, PAN-811 manifested as a free radical scavenger in a cell free system where PAN-811 reduced 500 μM of a stable free radical diphenylpicrylhydrazyl by 70%. Taken together, PAN-811 has manifested as a potent neuroprotectant with dual drug targets—oxidative stress and free calcium.
# [3] = tested on: veratridine-induced sodium channel opening; assay: veratridine-induced sodium channel opening and related cell death; assay type: cell-based
# Procedure: as §1
# [4] = tested on: staurosporine-induced apoptosis; assay: staurosporine-induced apoptosis; assay type: cell-based
# Procedure: as §1
# [5] = tested on: ischemic neurodegeneration; conditions: 0.45 μM; cited from earlier work
# [6] = tested on: hypoxia-induced neuronal cell death; conditions: 1.2μM; cited from earlier work
# [7] = tested on: human Alzheimer's disease-derived and age-matched olfactory neuroepithelial cells; assay: oxidative stress-induced cell death of olfactory neuroepithelial cells; assay type: cell-based; conditions: via suppression of intracellular reactive oxygen species
# Procedure: as §1
smiles,measurement,setting,value
"NC(=S)N/N=C/c1ncccc1N [PAN-811, 3-aminopyridine-2-carboxaldehyde thiosemicarbazone]",inhibition of ribonucleotide reductase,[1],inhibit
same,prevention of glutamate-induced excitatory cytotoxicity,[2],prevents
same,prevention of veratridine-induced sodium channel opening and related cell death,[3],prevents
same,prevention of staurosporine-induced apoptosis,[4],prevents
same,block of ischemic neurodegeneration,[5],fully blocked
same,halt of hypoxia-induced neuronal cell death,[6],completely halted
same,inhibition of oxidative stress-induced cell death,[7],inhibited
